# Patent publication EP2886531B1, “Aspartic acid derivatives” (Merck Patent GmbH, priority 2013, dated 2015)
# How the values were obtained:
# [1] = Prolonged piperidine treatment of VKDNYI peptide resin (aspartimide formation, Asp-Asn motif); format: physicochemical; conditions: for D/L-Asu [%] / piperidides [%] / target [%]: 110 Fmoc removal cycles; for target [%]: target peptide VKDNYI
# Experimental: (§1) Automated peptide synthesis, piperidine treatments of the resin samples and final TFA cleavages are performed as described in the protocols of example 4. In addition, 50 mg peptide resin samples are treated with a solution of DBU/piperidine/DMF (1:19:79) over 225 minutes to investigate the aspartimide formation at harsher Fmoc deprotection conditions often used for complete Fmoc removals in aggregation prone sequences.
# (§2) The resulting peptide samples are analysied and all relevant impurities identified by UPLC-MS analysis (Xevo Waters Q-TOF-1, lock mass = 556.277 (leu-enkephaline), LC-conditions: CHS 18 1,7 µm (100x2.1 mm) at 40°C; water acetonitrile gradient of 5% to 35 % B over 10 min where buffer A is 0.1 % formic acid in water and buffer B is 0.1 % formic acid in acetonitrile, flow 0.6 ml/min).
# In table 2 the amounts of by-products formed after the prolonged exposure of the peptide resins to piperidine (110 Fmoc removal cycles) are summarized for all side-chain protections used in this invention. […] Table 2: Results after 110 Fmoc removal cycles using piperidine, target peptide = VKDNYI, the aspartimide (Asu) derived by products are the aspartimide itself and the sum of piperidides
# [2] = Prolonged DBU treatment of VKDNYI peptide resin (aspartimide formation); format: physicochemical; conditions: for D/L-Asu [%] / piperides [%]: DBU/piperidine/DMF (1:19:79), 225 minutes; for target [%]: target peptide VKDNYI, DBU/piperidine/DMF (1:19:79) over 225 minutes, 110 Fmoc removal cycles
# Experimental: as §1, §2
# In table 3 the amounts of by-products formed after prolonged DBU treatments are summarized for all side-chain protections used in this invention. […] Since the DBU mediated Fmoc removals are much quicker than the piperidine mediated, this experiment again represents a Fmoc SPPS assembly of an 100mer after introducing the aspartic acid residue using exclusively DBU for Fmoc cleavage. Table 3: Results after 110 Fmoc removal cycles using DBU, target peptide = VKDNYI, the aspartimide (Asu) derived by-products are the aspartimide itself and the sum of piperidides
# [3] = Prolonged piperidine treatment of VKDRYI peptide resin (aspartimide formation, Asp-Arg motif); format: physicochemical; conditions: for D/L-Asu [%] / piperidides [%] / target [%]: 110 Fmoc removal cycles; for target [%]: target peptide VKDRYI
# Experimental: (§3) Automated peptide synthesis, piperidine treatments of the resin samples and final TFA cleavages are performed as described in the protocols of example 4. In addition, to evaluate the advantage of the protecting groups used in this invention in heat accelerated SPPS we treat 50 mg peptide resin samples with a solution of 20% piperidine in DMF at 60°C over 200 minutes. Microwave assisted peptide synthesis conditions are often used to shorten peptide synthesis times and increase coupling reaction and Fmoc deprotection.
# (§4) In table 4 the amounts of by-products formed after the prolonged exposure of the peptide resins to piperidine (110 Fmoc removal cycles) are summarized for all side-chain protections used in this invention. Table 4: Results after 110 Fmoc removal cycles using piperidine, target peptide sequence = VKDRYI, the aspartimide (Asu) derived by-products are the aspartimide itself and the sum of piperidides
# [4] = Prolonged piperidine treatment at 60°C of VKDRYI peptide resin (aspartimide formation); format: physicochemical; conditions: for D/L-Asu [%] / piperidides [%]: 20% piperidine in DMF at 60°C, 200 minutes; for target [%]: target peptide VKDRYI, 20% piperidine in DMF at 60°C over 200 minutes, 100 Fmoc removal cycles; for aspartimide by-products per cycle: piperidine at 60 degrees Celsius
# Experimental: as §3
# The application of microwave heating to SPPS is accelerating coupling and deprotection reactions leading to shorter cycle times, higher repetitive yields, and ultimately purer peptides. On the other hand, microwave energy can also lead to increased levels of aspartimide by-products. To overcome that drawback we evaluated the advantage of the side-chain protections used in this invention by exposing the peptide resins to Fmoc removal cycles at 60 degrees Celsius.
# as §4, with “5” for “4”, “at 60 degree Celsius (100” for “(110”, “invention. […]” for “invention.”, “5:” for “4:”, “100” for “110”, “piperidine at 60°C,” for “piperidine,”
# [5] = Prolonged treatment of VKDGYI peptide resin with 1 M Oxyma Pure and 20 % piperidine (aspartimide formation); format: physicochemical; conditions: for Asu per 10' cycle / Asu [%] / piperidides [%]: Oxyma Pure +; for Asu [%] / piperidides [%] / target [%]: 18 hours; for target [%]: Oxyma Pure +: 1 M Oxyma Pure and 20 % piperidine in dimethylformamide
# Experimental: [drawing 14] 50 mg samples of the corresponding aspartic acid derivatives of example 4 are treated over 18 hours with a solution of 1 M Oxyma Pure and 20 % piperidine in dimethylformamide. The peptides are cleaved off the resin with 95 % TFA and analysed with HPLC as well as MS to identify all aspartimide related products (conditions see example 4). The results are summarized in table 6: Table 6: Results after 110 Fmoc removal cycles using an acidic modifier in the piperidine mediated Fmoc removal cocktails, target peptide = VKDG YI, the aspartimide derived by-products are the aspartimide itself and the sum of piperidides
# [6] = Prolonged piperidine treatment of VKDGYI peptide resin (aspartimide formation, Asp-Gly motif)
# [7] = VKDGYI, 20 % piperidine in dimethylformamide
# [8] = VKDGYI, 20 % piperidine in dimethylformamide, 18 hours, aspartimide
# [9] = VKDGYI, 20 % piperidine in dimethylformamide, 18 hours, sum of piperidides
# [10] = VKDGYI, Oxyma Pure -: 20 % piperidine only, 18 hours (as Table 1)
# [11] = target peptide VKDGYI, 20 % piperidine in dimethylformamide over 18 hours, 110 Fmoc removal cycles
# [12] = VKDGYI, 1 M Oxyma Pure in 20 % piperidine
Compound,"Asu per 10' cycle ([1]; VKDNYI, piperidine)","D/L-Asu [%] ([1]; VKDNYI, piperidine)","piperidides [%] ([1]; VKDNYI, piperidine)",target [%] ([1]; piperidine),"Asu per 2' cycle ([2]; VKDNYI, DBU)",D/L-Asu [%] ([2]; VKDNYI),piperides [%] ([2]; VKDNYI),target [%] [2] [%],Asu per 10' cycle ([3]; VKDRYI),Half-life in cycles ([3]; VKDRYI) [cycles],D/L-Asu [%] ([3]; VKDRYI),piperidides [%] ([3]; VKDRYI),target [%] [3] [%],Half-life in cycles [4] [cycles],D/L-Asu [%] ([4]; VKDRYI),piperidides [%] ([4]; VKDRYI),"Asu per 10' cycle ([4]; VKDRYI, piperidine at 60°C)",target [%] [4] [%],Asu per 10' cycle ([5]; VKDGYI),Asu [%] ([5]; VKDGYI),other results
CCCCC(CCCC)(CCCC)OC(=O)C[C@H](NC(=O)OCC1c2ccccc2-c2ccccc21)C(=O)O [Bno],0.04,0.9,3.6,95.5,0.3,3.5,22.0,74.5,0.06,1202,2.6,3.6,93.8,718,4.9,4.3,0.1,90.8,–,–,"aspartimide side reaction during the Fmoc removals, rate per cycle ([1]; VKDNYI, piperidine): 0.05%; aspartimide formation per 2 minute Fmoc removal cycle ([2]; VKDNYI, DBU): less than 0.3%; aspartimide side reaction during the Fmoc removals per cycle ([3]; VKDRYI): less than 0.06%"
"CCC(CC)(CC)OC(=O)C[C@H](NC(=O)OCC1c2ccccc2-c2ccccc21)C(=O)O [Epe, (2S)-N-((9H-fluoren-9-ylmethyloxy)carbonyl)aspartic acid-4-((3-ethyl)pent-3-yl) ester]",0.2,3.0,16.0,81.0,0.5,5.6,37.3,57.1,0.1,539,3.90,9.4,86.7,439,7.8,6.8,0.2,85.4,0.14,2.6,"Half-life in cycles [1]: 365 cycles; Half-life in cycles [2]: 138 cycles; aspartimide by-products per cycle ([4]; VKDRYI): 0.2%; piperidides [%] ([5]; VKDGYI): 11.7%; target [%] ([5]; VKDGYI): 85.7%; Asu per 10' cycle [%] [6, 7]: 0.4%; Asu [%] [6, 8]: 4.1%; piperidides [%] [6, 9]: 31.5%; Asu [%] ([6]; VKDGYI, Oxyma Pure -): 4.1%; Asu per 10' cycle ([6]; VKDGYI, Oxyma Pure -): 0.4; piperidides [%] ([6]; VKDGYI, Oxyma Pure -): 31.5%; target [%] [6, 10]: 64.4%; minimizes the aspartimide formation by a factor compared to Mpe ([6]; VKDGYI, relative to Mpe protection): two; target [%] [6, 11]: 64.4%"
"CCC(C)(CC)OC(=O)C[C@H](NC(=O)OCC1c2ccccc2-c2ccccc21)C(=O)O [Mpe, Fmoc-Asp(OMpe)-OH, reference compound]",0.5,4.3,37.5,58.2,1.5,7.5,73.7,18.8,0.4,173,6.9,28.9,64.2,–,16.9,19.6,0.5,63.5,0.16,3.8,"Half-life in cycles ([1]; VKDNYI, piperidine): 140 cycles; times more aspartimide per Fmoc removal cycle ([1]; VKDNYI, piperidine, in comparison to Bno): ten; Half-life in cycles ([2]; VKDNYI, DBU, 2' cycles): 46 cycles; times more aspartimide per Fmoc removal cycle ([3]; VKDRYI, in comparison to Bno): approximately seven; Half-life in cycles ([3]; VKDRYI, listed as Fmoc-Asp(OMpe)-OH): approx. 170 cycles; aspartimide by-products per cycle ([4]; VKDRYI): 0.5%; Half-life in cycles ([4]; VKDRYI, piperidine at 60°C): 153 cycles; piperidides [%] ([5]; VKDGYI): 12.0%; target [%] ([5]; VKDGYI): 84.2%; Asu per 10' cycle [%] [6, 7]: 0.8%; Half-life in 10' cycles [6, 7]: 90 10' cycles; Asu [%] [6, 8]: 6.7%; piperidides [%] [6, 9]: 51.0%; Asu [%] ([6]; VKDGYI, Oxyma Pure -): 6.7%; Asu per 10' cycle ([6]; VKDGYI, Oxyma Pure -): 0.8; piperidides [%] ([6]; VKDGYI, Oxyma Pure -): 51.0%; target [%] [6, 10]: 42.3%; target [%] [6, 11]: 42.3%"
"CCCC(CCC)(CCC)OC(=O)C[C@H](NC(=O)OCC1c2ccccc2-c2ccccc21)C(=O)O [Php, (2S)-N-((9H-fluoren-9-ylmethyloxy)carbonyl)aspartic acid-4-(4-(n-propyl)hept-4-yl) ester]",0.09,1.0,8.2,90.8,0.4,3.3,25.7,71.0,0.08,845,3.2,5.5,91.3,532,7.1,5.1,0.1,87.8,0.04,1.3,"Half-life in cycles [1]: 800 cycles; Half-life in cycles [2]: 192 cycles; aspartimide side reaction ([5]; Asp-Gly sequence, Fmoc removal solution of 1 M Oxyma Pure in piperidine/DMF 1:4): nearly inhibits the apartimide side reaction; aspartimide derived by-products per Fmoc removal [5, 12]: 0.05%; half-life [5, 12]: greater than 1500 cycles; piperidides [%] ([5]; VKDGYI): 3.3%; target [%] ([5]; VKDGYI): 95.4%; half-life of the target peptide increased, in respect of Mpe ([6]; VKDGYI, Asp-Gly sequence, relative to Mpe protection): 4 fold; half-life of the target peptide increased, instead of tBu ([6]; VKDGYI, Asp-Gly sequence, relative to tBu protection): more than 10 fold; Asu per 10' cycle [%] [6, 7]: 0.2%; Asu [%] [6, 8]: 2.9%; piperidides [%] [6, 9]: 16.5%; Asu [%] ([6]; VKDGYI, Oxyma Pure -): 2.9%; Asu per 10' cycle ([6]; VKDGYI, Oxyma Pure -): 0.2; piperidides [%] ([6]; VKDGYI, Oxyma Pure -): 16.5%; target [%] [6, 10]: 80.6%; target [%] [6, 11]: 80.6%"
